Test results taken from paper PMC10606834, “Is the Neuropeptide PEN a Ligand of GPR83?” (International Journal of Molecular Sciences, 2023).

Tests used:
[1] = test system: ERK1/2 phosphorylation in HEK293 cells overexpressing GPR83 or GPR83del; experiment: ERK1/2 phosphorylation (immunoblot), GPR83 cells; type: cell-based, human; conditions: 15 min; for phosphorylation of ERK1/2: 10 µM PEN #1, 100 ng/mL EGF or 200 nM PMA, HEK293 overexpressing GPR83 or GPR83del as well as wild-type HEK293, n = 2 independent experiments
Source text: Apart from G protein-mediated second messenger signaling via Ca^2+ and cAMP, GPCR stimulation may also lead to activation of β-arrestin and phosphorylation of extracellular signal-regulated kinases 1/2 (ERK1/2). Immunoblot analysis was employed to investigate ligand-dependent phosphorylation of ERK1/2 in HEK293 cells overexpressing GPR83 or the deletion variant GPR83del as well as in wild-type HEK293 cells.
Figure 4 Ligand-dependent phosphorylation of ERK1/2 and β-arrestin (TANGO) assay. (A) Immunoblot detection of phosphorylated (upper blot) and total (lower blot) ERK1/2 in lysates of HEK293 wild-type cells and in HEK293 cells overexpressing GPR83 or GPR83del. (B) Quantification (mean ± SD of n = 2 independent experiments) of chemiluminescent readout of the immunoblots shown in (A). (C) TANGO assay for ligand-induced β-arrestin activity in HTLA cells overexpressing GPR83 (relative light units, RLU). (D) TANGO assay for ligand-induced β-arrestin activity in HTLA cells overexpressing bradykinin receptor BDKBR2.
4.7. ERK1/2 Phosphorylation Assay
Effects of GPCR ligands on MAPK signaling were assessed with Western blot analysis of lysates from stimulated cells. The ERK1/2 activation assay was performed as described before. Briefly, 50,000 cells per well were seeded onto adherent 6-well plates and cultured until cells were 80% confluent. After incubation with ligands (10 µM PEN #1 and 100 ng/mL EGF or 200 nM PMA in 0.1% FCS/DMEM) for 15 min, cells were lysed using 200 µL/well cell lysis buffer (100 mM Tris-HCl pH 8.8, 1% SDS) and protease inhibitors (cOmplete, Roche, Basel, Switzerland) on ice for one hour. Immunolabeling was realized using the rabbit monoclonal primary antibody anti-phospho-ERK1/2 Thr^202/Tyr^204 (#4370, Cell Signaling Technologies, Danvers, MA, USA, 1:2000), or anti-total ERK1/2 (#05-1152; Millipore, Burlington, VT, USA; 1:2000), respectively. Blots were analyzed using densitometric quantification using Image Lab Software v4.1 (Bio-Rad).

[2] = test system: GPR83 and GPR83del (HEK293 and U2OS clones; wild-type cells as comparison); experiment: Ligand-dependent cAMP formation; type: cell-based, human; conditions: 1 µM PEN or 50 µM forskolin, GPR83-overexpressing clones and wild-type HEK293 and U2OS cells, 10 min incubation, LANCE Ultra cAMP kit, TR-FRET competition, duplicate
Experimental: Production of cyclic adenosine monophosphate (cAMP) is a hallmark of GPCRs signaling via the Gs-induced pathway. To investigate the potential of PEN to stimulate cAMP production mediated by GPR83, levels of the second messenger were determined after incubation with PEN of various GPR83-overexpressing clones as well as wild-type HEK293 and U2OS cells.
Figure 3 Analysis of ligand-dependent, GPR83-mediated cAMP production. (A) Wild-type HEK293 and U2OS cells as well as various clones with confirmed overexpression of either GPR83 or the deletion variant GPR83del (both ± HA tag) were incubated with either buffer, 1 µM PEN, or 50 µM forskolin. (B) Selected GPR83-overexpressing HEK293 clones were assayed for cAMP production using different concentrations of PEN. (C) Selected GPR83-overexpressing U2OS clones were assayed for cAMP production using different concentrations of PEN.
To measure intracellular cAMP production, the LANCE Ultra cAMP kit (Perkin Elmer) was used according to the manufacturer’s instructions. The day before the experiment, cells were seeded onto a 96-well plate with approximately 80% confluence. After 16–24 h, the medium was removed, and 100 μL/well of serum-free medium was added, followed by a 3 h incubation. Thereafter, medium was removed, and 40 μL of ligand dissolved in cAMP stimulation buffer was pipetted onto cells, then incubated for 10 min. The ligands used were pipetted in duplicate. For concentration–response curves, serial dilutions were carried out from the stock solutions of 1 mM to create a concentration range from 1 µM to 30 pM. As controls, 4 wells were treated with buffer only (negative control) and 4 wells with 50 μM forskolin (positive control). After a 10 min incubation, 10 μL of a 0.5% Triton-X 100 solution in PBS was added to each well. To lyse cells, the plate was shaken on a Vibramax 100 Shaker (Heidolph, Kelheim, Germany) (750 rpm) at room temperature for 10 min. A 10 μL volume of the cell lysates were transferred into a white 384 well plate (ProxiPlate, PerkinElmer). A 5 μL volume of the Europium-cAMP tracer (1 to 50 dilution of Eu-tracer stock in cAMP detection buffer) was added to each well. Next, 5 μL of the ULight-anti-cAMP solution (1 to 150 dilution of ULight-tracer stock in cAMP detection buffer) was added to each well. After a 1 h incubation period at room temperature in the dark, the TR-FRET signal was measured using an EnVision 2103 Multilabel Reader (Perkin Elmer).

[3] = test system: GPR83 and GPR83del, with or without HA tag (HEK293 cells; wild-type HEK293 as comparison); experiment: Competitive radioligand binding assay, GPR83; design: species or system human; conditions: pH 7.4, 2 h; for radioligand binding signal: 100,000 cpm 125I-labelled peptide, wild-type HEK293 and HEK293 expressing full-length or deletion variant GPR83, with or without HA tag
Source text: One of the most proven methods for quantitatively analyzing the interaction of biomolecules is the competitive radioligand binding assay. […] To safeguard against possible interference of the added Tyr with ligand–receptor binding, two peptides were created and are as follows: one with the Tyr on the aminoterminal end (Tyr-PEN), and the other with Tyr added on the carboxyterminus (PEN-Tyr). Radiolabeled ^125I-PEN-Tyr and ^125I-Tyr-PEN were then used on wild-type HEK293 cells and HEK293 cells expressing various forms of GPR83 (full-length or deletion variant, with or without HA tag) in competition with different concentrations of natural PEN or Tyr-PEN, ranging from 1 pM to 1 µM.
Figure 5 HEK293 wild-type cells and HEK293 cells overexpressing various forms of GPR83 were used in radioligand binding assays with two different radioactively labeled PEN peptides: [^125I]-Tyr-PEN or [^125I]-PEN-Tyr. (A) Radioligand [^125I]-PEN-Tyr in competition with unlabeled wild-type PEN. (B) Radioligand [^125I]-Tyr-PEN in competition with unlabeled wild-type PEN. (C) Radioligand [^125I]-PEN-Tyr in competition with unlabeled wild-type PEN. (D) Radioligand [^125I]-Tyr-PEN in competition with Tyr-PEN. […]
Two variants of human PENs were utilized for radioiodination in this study: one with a tyrosine added at the aminoterminal end (Tyr-PEN: […]-NH2), and one with an additional tyrosine attached to the carboxyterminal end (PEN-Tyr: […]-NH2). Both were labelled with ^125I using the chloramine-T method. Chloramine-T and sodium metabisulfite solutions were freshly prepared in water. For labelling, 10 µL of peptide (stock 1 mM) with 15 µL of sodium phosphate buffer (0.5 M, pH 7.6) was mixed with 37 MBq carrier-free Na^125I (NEZ033L010MC, Perkin Elmer, Waltham, MA, USA). A 4 μL volume of chloramine T (1 mg/mL) was added to start the reaction, and after 30 s, 4 μL sodium metabisulfite (2 mg/mL) was added to stop the iodination. The labeled radioactive peptide was separated from unlabeled peptide with HPLC purification (Agilent ZORBAX 300 Extend-C18 column) using a gradient from 20–50% acetonitrile (+0.1% TFA) against water (+0.1% TFA) for 20 min. To determine the retention time of the radioactive peptide, 1–2 µL of the reaction mixture was analyzed before the purification run. The fraction containing the radiolabeled peptide peak was then collected, diluted with binding buffer to prevent radioautolysis, aliquoted, and stored at −80 °C.
4.10. Radioligand Binding Assay
For competitive radioligand binding assay, approximately 50,000 cells/well were seeded in a 96-well plate incubated overnight at 37 °C. Next day, cells were incubated in binding buffer (50 mM HEPES pH 7.4, 5 mM MgCl2, 1 mM CaCl2, 0.5% BSA, cOmplete protease inhibitors) containing 100,000 counts per minute of ^125I-labelled peptide, with increasing concentrations of unlabeled peptide. After 2 h of incubation, cells were washed for 2–3 times with ice-cold washing buffer (50 mM Tris-HCl, pH 7.4, 125 mM NaCl, 0.05% BSA) and lysed with 1 N NaOH (80 µL/well). The lysed cells were transferred to vials and measured in a gamma counter (Wallac 1470 Wizard, Perkin Elmer, Waltham, MA, USA). Obtained cpm values were plotted with GraphPad Prism 7, and the data were fitted using nonlinear regression (one site—fit Ki, one site—fit logIC50).

Compound | phosphorylation of ERK1/2 [1] | radioligand binding signal [3] | further results
CCCCCCCCCCCCCC(=O)O[C@@H]1[C@@H](C)[C@@]2(O)[C@@H](C=C(CO)C[C@]3(O)C(=O)C(C)=C[C@@H]23)[C@@H]2C(C)(C)[C@]12OC(C)=O [PMA, phorbol-12-myristate-13-acetate, reference compound] | substantially induced phosphorylation of ERK1/2 |  | 
C=C[C@@]1(C)CC(=O)[C@]2(O)[C@@]3(C)[C@@H](O)CCC(C)(C)[C@@H]3[C@H](O)[C@H](OC(C)=O)[C@@]2(C)O1 [forskolin, reference compound] |  |  | cAMP levels [2]: strongly increased cAMP levels; cAMP levels ([2]; listed as Forskolin): strong induction of intracellular cAMP
EGF: positive control, epithelial growth factor (as printed) (NSDSECPLSHDGYCLHDGVCMYIEALDKYACNCVVGYIGERCQYRDLKWWELR; Epidermal growth factor; UniProt P01133 971-1023, looked up) | substantially induced phosphorylation of ERK1/2 |  | phosphorylation of ERK1/2, rank of response ([1]; 100 ng/mL EGF, compared with PEN and PMA, n = 2): strongest response
YAADHDVGSELPPEGVLGALLRV-NH2 [Tyr-PEN, human PEN with a tyrosine added at the aminoterminal end] |  |  | concentration-dependent displacement of radioligand ([3]; unlabeled peptide 1 pM to 1 µM versus 125I-PEN-Tyr or 125I-Tyr-PEN, HEK293 wild-type and GPR83 / GPR83del with or without HA tag): neither of these different assay conditions led to a PEN-GPR83 binding signal above background or a concentration-dependent displacement of the radioligand
^125I-PEN-Tyr: PEN-Tyr labelled with 125I using the chloramine-T method |  | neither of these different assay conditions led to a PEN-GPR83 binding signal above background | 
^125I-Tyr-PEN: Tyr-PEN labelled with 125I using the chloramine-T method |  | neither of these different assay conditions led to a PEN-GPR83 binding signal above background | 
